This note sets out measurements from patent publication US20230348376A1 (TEIJIN PHARMA LIMITED, priority 2020, published 2023).

Each structure is given as a SMILES string.

For this assay, the target named is T1, human VDR (Homo sapiens, UniProt P11473).
T1 sequence (P11473 1-427): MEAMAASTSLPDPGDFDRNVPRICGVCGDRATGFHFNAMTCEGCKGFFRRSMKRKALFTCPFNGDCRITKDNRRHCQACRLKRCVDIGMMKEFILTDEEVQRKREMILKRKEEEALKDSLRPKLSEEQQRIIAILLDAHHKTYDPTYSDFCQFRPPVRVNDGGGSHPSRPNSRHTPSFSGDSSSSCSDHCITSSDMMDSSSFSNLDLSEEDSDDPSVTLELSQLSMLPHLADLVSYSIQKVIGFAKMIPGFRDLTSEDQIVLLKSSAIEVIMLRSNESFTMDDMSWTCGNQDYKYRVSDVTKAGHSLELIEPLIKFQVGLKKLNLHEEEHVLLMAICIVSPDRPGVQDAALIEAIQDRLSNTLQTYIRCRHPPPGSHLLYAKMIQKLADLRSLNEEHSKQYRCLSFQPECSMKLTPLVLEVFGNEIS
T1 sequence (P19793 1-462 partner): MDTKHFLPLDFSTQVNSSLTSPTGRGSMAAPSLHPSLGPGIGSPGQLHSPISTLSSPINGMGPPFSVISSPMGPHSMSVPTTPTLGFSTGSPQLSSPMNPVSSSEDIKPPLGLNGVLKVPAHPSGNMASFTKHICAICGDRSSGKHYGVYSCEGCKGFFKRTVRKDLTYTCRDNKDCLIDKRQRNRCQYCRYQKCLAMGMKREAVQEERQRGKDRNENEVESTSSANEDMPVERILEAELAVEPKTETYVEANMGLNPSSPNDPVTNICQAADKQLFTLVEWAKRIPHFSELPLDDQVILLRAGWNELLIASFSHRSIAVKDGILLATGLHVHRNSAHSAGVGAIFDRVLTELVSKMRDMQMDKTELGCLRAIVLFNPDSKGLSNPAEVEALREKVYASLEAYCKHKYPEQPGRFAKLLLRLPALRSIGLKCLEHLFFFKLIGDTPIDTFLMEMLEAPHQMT
The experiment in a line: Evaluation of VDR transcription activity in human osteoblasts (HOS cells), luciferase reporter. The following applies: Activity (EC50, VDR transcription activity), HOS cells transfected with human VDR, human RXRα and DR3 luciferase reporter; 21 hours. (In general: In a reporter assay the amount or activity of a reporter protein is the signal.)
In the case of `C[C@H](CCN1CC[C@@H](OC(F)F)C1)[C@H]1CC[C@H]2/C(=C/C=C3C[C@@H](O)C[C@H](O)C3)CCC[C@]12C` [Compound B087, (1R,3R)-5-(2-((1R,3aS,7aR,E)-1-((R)-4-((R)-3-(difluoromethoxy)pyrrolidin-1-yl)butan-2-yl)-7a-methyloctahydro-4H-inden-4-ylidene)ethylidene)cyclohexane-1,3-diol], the EC50 is 100 to 1000 nM.

Compound `C=C1[C@H](O)CC(=C/C=C2\CCC[C@]3(C)[C@@H]([C@H](C)CCN4CC[C@H](C(F)F)C4)CC[C@@H]23)C[C@H]1O` [Compound B088, (1R,3R)-5-(2-((1R,3aS,7aR,E)-1-((R)-4-((S)-3-(difluoromethyl)pyrrolidin-1-yl)butan-2-yl)-7a-methyloctahydro-4H-inden-4-ylidene)ethylidene)-2-methylenecyclohexane-1,3-diol] registered an EC50 of 1 to 10 nM.

`C=C1[C@H](O)CC(=C/C=C2\CCC[C@]3(C)[C@@H]([C@H](C)CCN4CC[C@H](CC(F)F)C4)CC[C@@H]23)C[C@H]1O` [Compound B090, (1R,3R)-5-(2-((1R,3aS,7aR,E)-1-((R)-4-((R)-3-(2,2-difluoroethyl)pyrrolidin-1-yl)butan-2-yl)-7a-methyloctahydro-4H-inden-4-ylidene)ethylidene)-2-methylenecyclohexane-1,3-diol]: the EC50 lay within 1 to 10 nM.

Consider `C=C1[C@H](O)CC(=C/C=C2\CCC[C@]3(C)[C@@H]([C@H](C)CCN4CC[C@H](C(C)(F)F)C4)CC[C@@H]23)C[C@H]1O` [Compound B091, (1R,3R)-5-(2-((1R,3aS,7aR,E)-1-((R)-4-((S)-3-(1,1-difluoroethyl)pyrrolidin-1-yl)butan-2-yl)-7a-methyloctahydro-4H-inden-4-ylidene)ethylidene)-2-methylenecyclohexane-1,3-diol], for which the EC50 was 1 to 10 nM.

In turn, `C=C1[C@H](O)CC(=C/C=C2\CCC[C@]3(C)[C@@H]([C@H](C)CCN4CC[C@@H](CC(F)F)C4)CC[C@@H]23)C[C@H]1O` [Compound B092, (1R,3R)-5-(2-((1R,3aS,7aR,E)-1-((R)-4-((S)-3-(2,2-difluoroethyl)pyrrolidin-1-yl)butan-2-yl)-7a-methyloctahydro-4H-inden-4-ylidene)ethylidene)-2-methylenecyclohexane-1,3-diol] yielded an EC50 of 10 to 100 nM.

On to `C=C1[C@H](O)CC(=C/C=C2\CCC[C@]3(C)[C@@H]([C@H](C)CCN4CC[C@@H](C(C)(F)F)C4)CC[C@@H]23)C[C@H]1O` [Compound B093, (1R,3R)-5-(2-((1R,3aS,7aR,E)-1-((R)-4-((R)-3-(1,1-difluoroethyl)pyrrolidin-1-yl)butan-2-yl)-7a-methyloctahydro-4H-inden-4-ylidene)ethylidene)-2-methylenecyclohexane-1,3-diol], for which the half-maximal effective concentration (EC50) lay in the range of 1 to 10 nM.

On to `C=C1[C@H](O)CC(=C/C=C2\CCC[C@]3(C)[C@@H]([C@H](C)CCN4CC[C@@H](CCC(F)F)C4)CC[C@@H]23)C[C@H]1O` [Compound B094, (1R,3R)-5-(2-((1R,3aS,7aR,E)-1-((R)-4-((R)-3-(3,3-difluoropropyl)pyrrolidin-1-yl)butan-2-yl)-7a-methyloctahydro-4H-inden-4-ylidene)ethylidene)-2-methylenecyclohexane-1,3-diol], for which the EC50 fell in the range of 10 to 100 nM.

In turn, `C=C1/C(=C\C=C2/CCC[C@]3(C)[C@@H]([C@@H](C)CN4CC[C@H](C(F)F)C4)CC[C@@H]23)C[C@@H](O)C[C@@H]1O` [Compound B095, (1R,3S,Z)-5-(2-((1R,3aS,7aR,E)-1-((R)-1-((S)-3-(difluoromethyl)pyrrolidin-1-yl)propan-2-yl)-7a-methyloctahydro-4H-inden-4-ylidene)ethylidene)-4-methylenecyclohexane-1,3-diol] gave an EC50 of 100 to 1000 nM.

Take `C=C1/C(=C\C=C2/CCC[C@]3(C)[C@@H]([C@@H](C)CN4CC[C@@H](C(F)F)C4)CC[C@@H]23)C[C@@H](O)C[C@@H]1O` [Compound B096, (1R,3S,Z)-5-(2-((1R,3aS,7aR,E)-1-((R)-1-((R)-3-(difluoromethyl)pyrrolidin-1-yl)propan-2-yl)-7a-methyloctahydro-4H-inden-4-ylidene)ethylidene)-4-methylenecyclohexane-1,3-diol]: the EC50 fell in the range of 1 to 10 nM.

Compound `C=C1/C(=C\C=C2/CCC[C@]3(C)[C@@H]([C@H](C)CN4CCC(O)(C(F)(F)F)CC4)CC[C@@H]23)C[C@@H](O)C[C@@H]1O` [Compound C001, (1R,3S,Z)-5-(2-((1R,3aS,7aR,E)-1-((S)-1-(4-hydroxy-4-(trifluoromethyl)piperidin-1-yl)propan-2-yl)-7a-methyloctahydro-4H-inden-4-ylidene)ethylidene)-4-methylenecyclohexane-1,3-diol] had an EC50 of 1 to 10 nM.

`C=C1/C(=C\C=C2/CCC[C@]3(C)[C@@H]([C@H](C)CN4CCC(O)(C(F)(F)F)CC4)CC[C@@H]23)C[C@@H](O)[C@H](C)[C@@H]1O` [Compound C003, (1R,2S,3S,Z)-5-(2-((1R,3aS,7aR,E)-1-((S)-1-(4-hydroxy-4-(trifluoromethyl)piperidin-1-yl)propan-2-yl)-7a-methyloctahydro-4H-inden-4-ylidene)ethylidene)-2-methyl-4-methylenecyclohexane-1,3-diol] had an EC50 of 10 to 100 nM.

`C=C1[C@H](O)CC(=C/C=C2\CCC[C@]3(C)[C@@H]([C@H](C)CN4CCC(O)(C(F)(F)F)CC4)CC[C@@H]23)C[C@H]1O` [Compound C004, (1R,3R)-5-(2-((1R,3aS,7aR,E)-1-((S)-1-(4-hydroxy-4-(trifluoromethyl)piperidin-1-yl)propan-2-yl)-7a-methyloctahydro-4H-inden-4-ylidene)ethylidene)-2-methylenecyclohexane-1,3-diol]: the EC50 lay within 10 to 100 nM.

Compound `C=C1[C@H](O)CC(=C/C=C2\CCC[C@]3(C)[C@@H]([C@H](C)CN4CCC(C(F)(F)F)CC4)CC[C@@H]23)C[C@H]1O` [Compound C009, (1R,3R)-5-(2-((1R,3aS,7aR,E)-7a-methyl-1-((S)-1-(4-(trifluoromethyl)piperidin-1-yl)propan-2-yl)octahydro-4H-inden-4-ylidene)ethylidene)-2-methylenecyclohexane-1,3-diol] had an EC50 of 10 to 100 nM.

In turn, `C=C1/C(=C\C=C2/CCC[C@]3(C)[C@@H]([C@H](C)CN4CCC(C(F)(F)F)CC4)CC[C@@H]23)C[C@@H](O)[C@H](C)[C@@H]1O` [Compound C010, (1R,2S,3S,Z)-2-methyl-5-(2-((1R,3aS,7aR,E)-7a-methyl-1-((S)-1-(4-(trifluoromethyl)piperidin-1-yl)propan-2-yl)octahydro-4H-inden-4-ylidene)ethylidene)-4-methylenecyclohexane-1,3-diol] had an EC50 of 10 to 100 nM.

On to `C=C1/C(=C\C=C2/CCC[C@]3(C)[C@@H]([C@@H](C)CN4CCC(C(F)(F)F)CC4)CC[C@@H]23)C[C@@H](O)C[C@@H]1O` [Compound C011, (1R,3S,Z)-5-(2-((1R,3aS,7aR,E)-7a-methyl-1-((R)-1-(4-(trifluoromethyl)piperidin-1-yl)propan-2-yl)octahydro-4H-inden-4-ylidene)ethylidene)-4-methylenecyclohexane-1,3-diol], for which the EC50 lay in the range of 1 to 10 nM.

Compound `C=C1/C(=C\C=C2/CCC[C@]3(C)[C@@H]([C@@H](C)CN4CCC(C(F)(F)F)CC4)CC[C@@H]23)C[C@@H](O)[C@H](C)[C@@H]1O` [Compound C012, (1R,2S,3S,Z)-2-methyl-5-(2-((1R,3aS,7aR,E)-7a-methyl-1-((R)-1-(4-(trifluoromethyl)piperidin-1-yl)propan-2-yl)octahydro-4H-inden-4-ylidene)ethylidene)-4-methylenecyclohexane-1,3-diol] showed an EC50 of 1 to 10 nM.

In turn, `C=C1[C@H](O)CC(=C/C=C2\CCC[C@]3(C)[C@@H]([C@H](C)CN4CCC(C(F)F)CC4)CC[C@@H]23)C[C@H]1O` [Compound C015] returned an EC50 of 10 to 100 nM.

Take `C=C1/C(=C\C=C2/CCC[C@]3(C)[C@@H]([C@H](C)CN4CCC(C(F)F)CC4)CC[C@@H]23)C[C@@H](O)[C@H](C)[C@@H]1O` [Compound C016, (1R,2S,3S,Z)-5-(2-((1R,3aS,7aR,E)-1-((S)-1-(4-(difluoromethyl)piperidin-1-yl)propan-2-yl)-7a-methyloctahydro-4H-inden-4-ylidene)ethylidene)-2-methyl-4-methylenecyclohexane-1,3-diol]: the EC50 fell in the range of 100 to 1000 nM.

Compound `C=C1/C(=C\C=C2/CCC[C@]3(C)[C@@H]([C@@H](C)CN4CCC(C(F)F)CC4)CC[C@@H]23)C[C@@H](O)C[C@@H]1O` [Compound C017, (1R,3S,Z)-5-(2-((1R,3aS,7aR,E)-1-((R)-1-(4-(difluoromethyl)piperidin-1-yl)propan-2-yl)-7a-methyloctahydro-4H-inden-4-ylidene)ethylidene)-4-methylenecyclohexane-1,3-diol] came in with an EC50 of 10 to 100 nM.

A word on the EC50: it is the concentration that produces a half-maximal response. A high value points to weaker potency.
